These are literature values, as cited in patent publication US8652545B2, “Composition of a liquid dietary supplement to treat symptoms of autism spectrum disorders in children” (Reverta Health Solutions LLC, priority 2008, dated 2014).

Data set [1] deals with individuals diagnosed with autism. To be noted: high doses, given with magnesium; Nye and Brice (2005).
The conditions of data set [2]: in vivo.
For data set [3] the following is noted: in vivo. The source holds these as a separate data set.

Turning to `Cc1ncc(CO)c(CO)c1O.Cl` [vitamin B6, Vitamin B6], in data set [1], the “benefit in individuals diagnosed with autism” value is recorded as “extremely beneficial”.
For `CCNC(=O)CC[C@H](N)C(=O)O` [Theanine], in data set [2], the sleep result is recorded as “promote a more restful deep sleep” and the stress result was “reduce stress”. The “crossing of the blood-brain barrier” value in data set [3] was “easily crosses the blood-brain barrier”.
